Experimental data taken from patent US9000012B2 (priority 2009, dated 2015).

Tested on: Phytophthora infestans
Assay: not given
Format: in vivo, Phytophthora infestans on tomato
Details: preventive spray on young tomato plants, 500 ppm of active ingredient, inoculated one day after treatment, evaluated 7 days after inoculation; 0% = untreated control, 100% = no disease

Structure (SMILES) | Efficacy
CCCCCOC(=O)Nc1cccc(CON=C(C(=O)N(C)C)c2ccccc2)n1 [Example 99] | 95%
CN(C)C(=O)C(=NOCc1cccc(NC(=O)OC(C)(C)C)n1)c1ccccc1 [Example 98] | 85%
CNC(=O)C(=NOCc1cccc(NC(=O)C2COc3ccccc3O2)n1)c1ccccc1 (centres unmarked) [Example 75] | 85%
CN(C)C(=O)C(=NOCc1cccc(NC(=O)C2COc3ccccc3O2)n1)c1ccccc1 (centres unmarked) [Example 109] | 98%

Tested on: not listed separately
Assay: logP of the compounds of table 1
Format: physicochemical
Details: not given

Structure (SMILES) | logP
COC(=O)C(=NOCc1cccc(NC(=O)c2cccs2)n1)c1ccccc1 [compound 43] | 3.67
CCN(C)C(=O)C(=NOCc1cccc(NC(=O)Cc2ccc(OC)cc2)n1)c1ccccc1 [compound 137] | 3.23
CNC(=O)C(=NOCc1cccc(NC(=O)Cc2ccc(OC)cc2)n1)c1ccccc1 [compound 77] | 2.66
CNC(=O)C(=NOCc1cccc(N)n1)c1ccccc1 [compound 60] | 0.65
C#CCCCCOC(=O)Nc1nc(CON=C(C(=O)N(C)C)c2ccccc2)cs1 [compound 122] | 3.06
CCCCCCOC(=O)Nc1cccc(CON=C(C(=O)NC)c2ccccc2)n1 [compound 84] | 3.48
COC(=O)C(=NOCc1cccc(NCCC2CCCCC2)n1)c1ccccc1 [compound 44] | 3.04
CN(C)C(=O)C(=NOCc1cccc(NC(=O)c2cccc(F)c2)n1)c1ccccc1 [compound 113] | 3.23
CNC(=O)C(=NOCc1cccc(NC(=O)c2cccc(F)c2)n1)c1ccccc1 [compound 78] | 2.84
CN(C)C(=O)C(=NOCc1cccc(NC(=O)OCCOc2ccccc2)n1)c1ccccc1 [compound 115] | 3.48
CNC(=O)C(=NOCc1cccc(NCCCc2ccccc2)n1)c1ccccc1 [compound 79] | 1.94
CCN(C)C(=O)C(=NOCc1csc(NC(=O)Cc2ccc(OC)cc2)n1)c1ccccc1 [compound 147] | 3.09
COc1ccc(OC(=O)Nc2cccc(CON=C(C(=O)N(C)C)c3ccccc3)n2)cc1 [compound 117] | 3.25
CCCCCCOC(=O)Nc1cccc(CON=C(C(=O)OC)c2ccccc2)n1 [compound 46] | 5.14
COc1ccc(C(=O)Nc2nc(CON=C(C(=O)N(C)C)c3ccccc3)cs2)cc1 [compound 134] | 2.84
CCN(C)C(=O)C(=NOCc1csc(NC(=O)C(C)Oc2ccccc2)n1)c1ccccc1 (centres unmarked) [compound 146] | 3.48
CCN(C)C(=O)C(=NOCc1csc(N)n1)c1ccccc1 [compound 144] | 1.34
CCN(C)C(=O)C(=NOCc1cccc(NC(=O)OCCOc2ccccc2)n1)c1ccccc1 [compound 141] | 3.76
CCN(C)C(=O)C(=NOCc1csc(NC(=O)c2ccc(Cl)cc2)n1)c1ccccc1 [compound 150] | 3.69
CC#CCOC(=O)Nc1cccc(CON=C(C(=O)OC)c2ccccc2)n1 [compound 45] | 3.67
CCN(C)C(=O)C(=NOCc1cccc(NC(=O)C(C)Oc2ccccc2)n1)c1ccccc1 (centres unmarked) [compound 136] | 3.78
C=CCCOC(=O)Nc1cccc(CON=C(C(=O)NC)c2ccccc2)n1 [compound 80] | 2.77

Structure (SMILES) | logP
COC(=O)C(=NOCc1cccc(NC(=O)C2COc3ccccc3O2)n1)c1ccccc1 (centres unmarked) [compound 37] | 4.16
COC(=O)C(=NOCc1cccc(NCCCc2ccccc2)n1)c1ccccc1 [compound 41] | 2.60
CCN(C)C(=O)C(=NOCc1cccc(NC(=O)C2COc3ccccc3O2)n1)c1ccccc1 (centres unmarked) [compound 139] | 3.69
CCN(C)C(=O)C(=NOCc1csc(NC(=O)OCCOc2ccccc2)n1)c1ccccc1 [compound 151] | 3.48
COC(=O)C(=NOCc1cccc(N)n1)c1ccccc1 [compound 25] | 1.32
CCCCCOC(=O)Nc1cccc(CON=C(C(=O)N(C)C)c2ccccc2)n1 [Example 99] | 3.96
COC(=O)C(=NOCc1cccc(NC(=O)OC(C)(C)C)n1)c1ccccc1 [compound 26] | 4.20
C=CCCOC(=O)Nc1cccc(CON=C(C(=O)OC)c2ccccc2)n1 [compound 42] | 3.94
CN(C)C(=O)C(=NOCc1cccc(N)n1)c1ccccc1 [compound 97] | 1.10
CCN(C)C(=O)C(=NOCc1cccc(NC(=O)c2ccc(Cl)cc2)n1)c1ccccc1 [compound 140] | 3.85
C#CCC(C)OC(=O)Nc1nc(CON=C(C(=O)N(C)CC)c2ccccc2)cs1 (centres unmarked) [compound 145] | 3.09
COc1ccc(CC(=O)Nc2nc(CON=C(C(=O)N(C)C)c3ccccc3)cs2)cc1 [compound 131] | 2.88
CN(C)C(=O)C(=NOCc1cccc(NC(=O)OC(C)(C)C)n1)c1ccccc1 [Example 98] | 3.37
CNC(=O)C(=NOCc1cccc(NCCC2CCCCC2)n1)c1ccccc1 [compound 82] | 2.23
C=CCCOC(=O)Nc1cccc(CON=C(C(=O)N(C)C)c2ccccc2)n1 [compound 116] | 3.19
C#CCCCCOC(=O)Nc1cccc(CON=C(C(=O)N(C)CC)c2ccccc2)n1 [compound 138] | 3.35
COC(=O)C(=NOCc1cccc(NC(=O)Cc2ccc(OC)cc2)n1)c1ccccc1 [compound 39] | 3.69
CNC(=O)C(=NOCc1cccc(NC(=O)C2COc3ccccc3O2)n1)c1ccccc1 (centres unmarked) [Example 75] | 3.06
CCCCCOC(=O)Nc1cccc(CON=C(C(=O)OC)c2ccccc2)n1 [compound 27] | 3.69
C#CCCOC(=O)Nc1cccc(CON=C(C(=O)OC)c2ccccc2)n1 [compound 28] | 3.48
CN(C)C(=O)C(=NOCc1cccc(NC(=O)C2COc3ccccc3O2)n1)c1ccccc1 (centres unmarked) [Example 109] | 3.42
CNC(=O)C(=NOCc1cccc(NC(=O)c2cccs2)n1)c1ccccc1 [compound 81] | 2.57

Structure (SMILES) | logP
CNC(=O)C(=NOCc1cccc(N)n1)c1ccc(OCc2ccccc2)cc1 [compound 61] | 1.17
CC#CCOC(=O)Nc1cccc(CON=C(C(=O)NC)c2ccccc2)n1 [compound 83] | 2.59
C#CCC(C)OC(=O)Nc1nc(CON=C(C(=O)N(C)C)c2ccccc2)cs1 (centres unmarked) [compound 121] | 2.84
C#CCCOC(=O)Nc1nc(CON=C(C(=O)N(C)CC)c2ccccc2)cs1 [compound 152] | 2.80
CNC(=O)C(=NOCc1cccc(NC(=O)C(F)(F)Oc2ccccc2)n1)c1ccccc1 [compound 76] | 3.35
CN(C)C(=O)C(=NOCc1csc(NC(=O)OCCOc2ccccc2)n1)c1ccccc1 [compound 133] | 3.27
CN(C)C(=O)C(=NOCc1csc(NC(=O)c2ccc(Cl)cc2)n1)c1ccccc1 [compound 132] | 3.41
COC(=O)C(=NOCc1cccc(NC(=O)C(F)(F)Oc2ccccc2)n1)c1ccccc1 [compound 38] | 4.41
C#CCC(C)OC(=O)Nc1cccc(CON=C(C(=O)N(C)CC)c2ccccc2)n1 (centres unmarked) [compound 135] | 3.31
CCN(C)C(=O)C(=NOCc1csc(NC(=O)C2COc3ccccc3O2)n1)c1ccccc1 (centres unmarked) [compound 149] | 3.39
CCCCCOC(=O)Nc1cccc(CON=C(C(=O)NC)c2ccc(Oc3ccccc3)cc2)n1 [compound 65] | 2.64
CCCCCOC(=O)Nc1cccc(CON=C(C(=O)NC)c2ccc(OCc3ccccc3)cc2)n1 [compound 64] | 2.65
CNC(=O)C(=NOCc1cccc(NC(=O)OC(C)(C)C)n1)c1ccccc1 [compound 62] | 2.88
CCN(C)C(=O)C(=NOCc1cccc(NC(=O)OC(C)(C)C)n1)c1ccccc1 [compound 142] | 3.72
CC(C)(C)OC(=O)Nc1cccc(CON=C(C#N)c2ccccc2)n1 [compound 1] | 4.64
C#CCCOC(=O)Nc1nc(CON=C(C(=O)N(C)C)c2ccccc2)cs1 [compound 120] | 2.84
C#CCCCCOC(=O)Nc1nc(CON=C(C(=O)N(C)CC)c2ccccc2)cs1 [compound 148] | 3.29
COC(=O)C(=NOCc1cccc(NC(=O)c2cccc(F)c2)n1)c1ccccc1 [compound 40] | 3.94
C#CCCOC(=O)Nc1cccc(CON=C(C(=O)N(C)CC)c2ccccc2)n1 [compound 143] | 3.04
CN(C)C(=O)C(=NOCc1cccc(NC(=O)c2ccc(Cl)cc2)n1)c1ccccc1 [compound 114] | 3.57

Same assay, conditions: read-out: logP

Structure (SMILES) | logP
C#CCCOC(=O)Nc1cccc(CON=C(C#N)c2ccccc2)n1 (single isomer, unassigned) [Example 3, but-3-yn-1-yl{6-[({[cyano(phenyl)methylene]amino}oxy)methyl]pyridin-2-yl}carbamate] | 3.67

Tested on: not listed separately
Assay: logP of the compounds of table 1
Format: physicochemical
Details: not given
Remark: another data set of the same source

Structure (SMILES) | logP
CCON(C)C(=O)C(=NOCc1csc(NC(=O)OCCOc2ccccc2)n1)c1ccccc1 [compound 209] | 3.62
C#CCCCCOC(=O)Nc1cccc(CON=C(C(=O)N(C)OCC)c2ccccc2)n1 [compound 202] | 3.71
C#CCCOC(=O)Nc1cccc(CON=C(C(=N)SC)c2ccccc2)n1 [compound 309] | 3.02
CCON(C)C(=O)C(=NOCc1cccc(NC(=O)c2ccc(Cl)cc2)n1)c1ccccc1 [compound 204] | 4.01
CCON(C)C(=O)C(=NOCc1cccc(NC(=O)Cc2ccc(OC)cc2)n1)c1ccccc1 [compound 206] | 3.37
C#CCCOC(=O)Nc1cccc(CON=C(C(=N)N(C)N)c2ccccc2)n1 [compound 308] | 1.77
CCON(C)C(=O)C(=NOCc1csc(NC(=O)Cc2ccc(OC)cc2)n1)c1ccccc1 [compound 210] | 3.23
CCON(C)C(=O)C(=NOCc1cccc(NC(=O)C2COc3ccccc3O2)n1)c1ccccc1 (centres unmarked) [compound 203] | 3.83
CCON(C)C(=O)C(=NOCc1cccc(NC(=O)OC(C)(C)C)n1)c1ccccc1 [compound 201] | 2.38
CCON(C)C(=O)C(=NOCc1csc(N)n1)c1ccccc1 [compound 208] | 1.35
CCON(C)C(=O)C(=NOCc1cccc(NC(=O)OCCOc2ccccc2)n1)c1ccccc1 [compound 207] | 3.89
C#CCCOC(=O)Nc1cccc(CON=C(C(N)=S)c2ccccc2)n1 [compound 310] | 2.75
C#CCCCCOC(=O)Nc1nc(CON=C(C(=O)N(C)OCC)c2ccccc2)cs1 [compound 211] | 3.44
CCON(C)C(=O)C(=NOCc1cccc(NC(=O)C(C)Oc2ccccc2)n1)c1ccccc1 (centres unmarked) [compound 205] | 3.94
